Results: patent US20160022668A1, “APPLICATION OF CINCHONA ALKALOID DERIVATIVES AS CYTOTOXIC COMPOUNDS” (ADAM MICKIEWICZ UNIVERSITY, priority 2014, published 2016)
“And” between values parts separate entries of the source, which are not always exact repeats. Equal entries are not always repeated. Where two headings read alike, the source gives them in different places.

How the values were obtained:
A549 (lung cancer) = test: Sulphorhodamine B cytotoxicity test, A549 line; format: cell-based; settings: for Cytotoxic activity class, A549 (lung cancer) / Cytotoxic activity, IC50, A549 (lung cancer) / IC50: 72 hours incubation, sulphorhodamine B
Experimental: (§1) Cytotoxic activity tests were performed using the following cancer cell lines: MCF-7 (breast cancer), HeLa (cervical cancer) A549 (pulmonary cancer) and KB (nasopharynx cancer) obtained from ECACC (European Collection of Cell Cultures). Cytotoxicity tests were carried out using a standard procedure with sulphorhodamine B. They involved incubation of the cancer cell lines in the logarithmic growth phase for 72 hours with the compound tested and, subsequently, spectrophotometric determination of the degree of cell growth inhibition using adsorption of a dye (sulphorhodamine B) which binds cellular proteins. The determination was carried out according to a procedure reported in: Vichai, V., Kirtikara, K. […] Solutions of the test compounds were prepared in DMSO in the following concentration range: 0.05; 0.1; 0.5; 1; 5; 10; 50; 100 μM. The cells of the lines tested were treated with the solutions of the test compounds in a laminar-flow chamber which ensured sterile working conditions according to the following procedure: the first three wells were used as a control: they contained 20 μL of DMSO only; successive solutions of the test compound were added to subsequent wells (20 μL), starting with the lowest concentration (three wells for each concentration level). Subsequently, the plates were placed in an incubator for 72 hours. After the end of incubation, the adhered cells were fixed by adding 500 μL of cold (4° C.) 50% trichloroacetic acid (TCA) and incubated at 4° C. for 1 hour. Subsequently, each well was rinsed with sterile water and dried. The operation was repeated five times. The fixed cells were stained for 30 minutes by adding 500 μL of 0.4% of a dye solution (sulphorhodamine B) dissolved in 1% acetic acid. […] Subsequently, the plates were dried in air for approx. 5 minutes. Any […] dye was dissolved by adding 1500 μL of […] Tris-base buffer (trishydroxymethylaminomethane) to each well and shaken using an orbital shaker for 5 minutes. […] Depending on the type of the cell line, the following growth media were used: • the MCF-7 line was grown in Dulbecco's Modified Eagle's Medium (DME) from Sigma (cat. no. […] R8758). […] Program Procedure. Instruction and technical documentation change notice, instruction 14. Screening data summary interpretation and outline of current screening. Edition NCI NIH, Bethesda Rev., 1980, 6, 31-62).

[1] = test system: MCF-7 line (breast cancer); test: Sulphorhodamine B cytotoxicity test, MCF-7 line; format: cell-based; settings: for Cytotoxic activity class, MCF-7 line (breast cancer) / Cytotoxic activity, IC50, MCF-7 line (breast cancer) / IC50: 72 hours incubation, sulphorhodamine B
Experimental: as §1

KB (nasopharynx cancer) = test: Sulphorhodamine B cytotoxicity test, KB line; format: cell-based; settings: for Cytotoxic activity, IC50, KB (nasopharynx cancer) / IC50: 72 hours incubation, sulphorhodamine B
Experimental: Cytotoxic activity tests were performed using the following cancer cell lines: MCF-7 (breast cancer), HeLa (cervical cancer) A549 (pulmonary cancer) and KB (nasopharynx cancer) obtained from ECACC (European Collection of Cell Cultures).
Cytotoxicity tests were carried out using a standard procedure with sulphorhodamine B. They involved incubation of the cancer cell lines in the logarithmic growth phase for 72 hours with the compound tested and, subsequently, spectrophotometric determination of the degree of cell growth inhibition using adsorption of a dye (sulphorhodamine B) which binds cellular proteins. The determination was carried out according to a procedure reported in: Vichai, V., Kirtikara, K. Nature Protocols, 2006, 1, 1112.
Preparation of Cells for the Experiment:
Cancerous cells of the cell line tested in the logarithmic growth phase were seeded onto 24-well plates in a quantity of 20,000 cells/2 mL of the growth medium per well and, subsequently, incubated in an incubator at 37° C., in the 5% CO2 atmosphere for 24 hours.
Preparation of Test Compound Solutions:
Solutions of the test compounds were prepared in DMSO in the following concentration range: 0.05; 0.1; 0.5; 1; 5; 10; 50; 100 μM.
The cells of the lines tested were treated with the solutions of the test compounds in a laminar-flow chamber which ensured sterile working conditions according to the following procedure: the first three wells were used as a control: they contained 20 μL of DMSO only; successive solutions of the test compound were added to subsequent wells (20 μL), starting with the lowest concentration (three wells for each concentration level). Subsequently, the plates were placed in an incubator for 72 hours.
After the end of incubation, the adhered cells were fixed by adding 500 μL of cold (4° C.) 50% trichloroacetic acid (TCA) and incubated at 4° C. for 1 hour. Subsequently, each well was rinsed with sterile water and dried. The operation was repeated five times. The fixed cells were stained for 30 minutes by adding 500 μL of 0.4% of a dye solution (sulphorhodamine B) dissolved in 1% acetic acid. Any unbound dye was removed by decanting it from the plate, and the cells were washed 4 times with 1% acetic acid. Subsequently, the plates were dried in air for approx. 5 minutes. Any […] dye was dissolved by adding 1500 μL of […] Tris-base buffer (trishydroxymethylaminomethane) to each well and shaken using an orbital shaker for 5 minutes. Subsequently, 200 μL of solution from each well was transferred to each of two wells on a new 96-well plate and absorption of the solutions was determined spectrophotometrically at a wavelength of 490-530 nm using a plate reader.
Depending on the type of the cell line, the following growth media were used: • the MCF-7 line was grown in Dulbecco's Modified Eagle's Medium (DME) from Sigma (cat. no. D5796), • the HeLa, A549 and KB lines were grown in RPMI-1640 Medium from Sigma (cat. no. R8758).
IC50 values, denoting concentration of a compound needed to obtain 50% inhibition of cell growth, were determined for all the derivatives tested.

HeLa (cervical cancer) = test: Sulphorhodamine B cytotoxicity test, HeLa line; format: cell-based; settings: for Cytotoxic activity class, HeLa (cervical cancer) / Cytotoxic activity, IC50, HeLa (cervical cancer) / IC50: 72 hours incubation, sulphorhodamine B
Experimental: as §1

[2] = test system: breast cancer cells (MCF-7); settings: in vitro; Martirosyan et al. 2004; read-out: IC50, inhibition of growth and differentiation of breast cancer cells (MCF-7); cited from earlier work
[3] = average of three determinations
[4] = average of three determinations, read-out: Cytotoxic activity, IC50, A549 (lung cancer)
[5] = average of three determinations, read-out: Cytotoxic activity, IC50, MCF-7 line (breast cancer)
[6] = average of three determinations, read-out: Cytotoxic activity, IC50, KB (nasopharynx cancer)
[7] = read-out: Cytotoxic activity class, KB (nasopharynx cancer)
[8] = average of three determinations, read-out: Cytotoxic activity, IC50, HeLa (cervical cancer)
[9] = Homo sapiens, A549, average of three determinations, read-out: Cytotoxic activity, IC50, A549 (lung cancer)
[10] = Homo sapiens, A549, read-out: Cytotoxic activity class, A549 (lung cancer)
[11] = Homo sapiens, MCF7, average of three determinations, read-out: Cytotoxic activity, IC50, MCF-7 line (breast cancer)
[12] = Homo sapiens, MCF7, read-out: Cytotoxic activity class, MCF-7 line (breast cancer)
[13] = Homo sapiens, HeLa, average of three determinations, read-out: Cytotoxic activity, IC50, HeLa (cervical cancer)
[14] = Homo sapiens, HeLa, read-out: Cytotoxic activity class, HeLa (cervical cancer)

Compound | Cytotoxic activity class, A549 (lung cancer) (A549 (lung cancer)) | Cytotoxic activity, IC50, A549 (lung cancer) (A549 (lung cancer); [3]) [µg/mL] | IC50 (A549 (lung cancer); [4]) [µM] | Cytotoxic activity class, MCF-7 line (breast cancer) [1] | Cytotoxic activity, IC50, MCF-7 line (breast cancer) [1, 3] [µg/mL] | IC50 [1, 5] [µM] | Cytotoxic activity, IC50, KB (nasopharynx cancer) (KB (nasopharynx cancer); [3]) [µg/mL] | IC50 (KB (nasopharynx cancer); [6]) | IC50 (KB (nasopharynx cancer); [7]) [µg/mL] | Cytotoxic activity class, HeLa (cervical cancer) (HeLa (cervical cancer)) | Cytotoxic activity, IC50, HeLa (cervical cancer) (HeLa (cervical cancer); [3]) [µg/mL] | IC50 (HeLa (cervical cancer); [8]) [µM] | IC50 (A549 (lung cancer); [9]) | IC50 (A549 (lung cancer); [10]) [µg/mL] | IC50 [1, 11] | IC50 [1, 12] [µg/mL] | IC50 (HeLa (cervical cancer); [13]) | IC50 (HeLa (cervical cancer); [14]) [µg/mL] | further results
9-O-propargylcinchonidine [PCD] | (MA) (IC50 range of 4-30 μg/mL are considered medium active (abbreviated as MA)) | 16.0 | 48.1 | (MA) (IC50 range of 4-30 μg/mL are considered medium active (abbreviated as MA)) | 9.3 | 28 | 9.5 | 28.6 µM | 4 to 30 | (MA) (IC50 range of 4-30 μg/mL are considered medium active (abbreviated as MA)) | 10.0 | 30.1 |  |  |  |  |  |  | reduction in cytotoxic activity on change to the opposite configuration (8S,9R) ([1]; PCD versus PCN, general statement, not tied to one cell line): about 3 fold
O=c1[nH]c(=O)n([C@H]2C[C@H](O)[C@@H](CO)O2)cc1F [5-fluoro-2′-deoxyuridine, reference compound] |  |  |  |  |  |  |  | 13.7 µg/mL and 55.6 µM | 4 to 30 |  |  |  | 13.4 µg/mL and 54.4 µM | 4 to 30 | 11.4 µg/mL and 46.3 µM | 4 to 30 | 13 µg/mL and 52.8 µM | 4 to 30 | 
O=c1[nH]cc(F)c(=O)[nH]1 [5-fluorouracil, reference compound] |  |  |  |  |  |  |  | 22 µg/mL and 169 µM | 4 to 30 |  |  |  | 21.4 µg/mL and 165 µM | 4 to 30 | 18.2 µg/mL and 140 µM | 4 to 30 | 21 µg/mL and 161 µM | 4 to 30 | 
C#CCO[C@@H](c1ccnc2ccccc12)[C@H]1C[C@@H]2CCN1C[C@@H]2C=C [PCN, 9-O-propargylcinchonine] | (A) (IC50<4 μg/mL are generally assumed as active (abbreviated as A)) | 3.9 | 11.7 | (A) (IC50<4 μg/mL are generally assumed as active (abbreviated as A)) | 3.0 | 9.02 | 3.2 | 9.63 µM | < 4 | (A) (IC50<4 μg/mL are generally assumed as active (abbreviated as A)) | 3.5 | 10.5 |  |  |  |  |  |  | times as cytotoxic as 5FU (A549 (lung cancer); A549 line, ratio of IC50 to 5FU): more than five times; times as cytotoxic as 5FdU (A549 (lung cancer); A549 line, ratio of IC50 to 5FdU): more than three times; times as cytotoxic as 5FU ([1]; MCF-7 line, ratio of IC50 to 5FU): more than six times; times as active as 5FdU ([1]; MCF-7 line, ratio of IC50 to 5FdU): 3.8 times; times as high activity compared to 5FU (KB (nasopharynx cancer); KB line, ratio of IC50 to 5FU): 6.8 times; times as high activity compared to 5FdU (KB (nasopharynx cancer); KB line, ratio of IC50 to 5FdU): 4.3 times; times as cytotoxic as 5FU (HeLa (cervical cancer); HeLa line, ratio of IC50 to 5FU): six times; times as cytotoxic as 5FdU (HeLa (cervical cancer); HeLa line, ratio of IC50 to 5FdU): 3.7 times
C=C[C@H]1C[N@@]2CC[C@H]1C[C@@H]2[C@@H](O)c1ccnc2ccccc12 [cinchonine, reference compound] |  |  |  |  |  |  |  | > 50 µg/mL |  |  |  |  | > 50 µg/mL |  | > 50 µg/mL |  | > 50 µg/mL |  | 
C=C[C@H]1C[N@@]2CC[C@H]1C[C@H]2[C@H](O)c1ccnc2ccc(OC)cc12 [quinine] |  |  |  |  |  |  |  |  |  |  |  |  |  |  |  |  |  |  | IC50 [2]: 40 µM
